Results reported in PubChem BioAssay (NCI).
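Method: 48-hour compound exposure of cells in 96-well plates, five concentrations, linear interpolation of endpoints. GI50: concentration for 50% inhibition of growth. TGI: concentration producing complete growth inhibition.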

Tests used:
Test in all cases: inhibition of tumour cell growth, NCI panel, 48 h
EKVX NSCLC = test system: EKVX NSCLC
MOLT-4 leukemia = test system: MOLT-4 leukemia
SR leukemia = test system: SR leukemia
RPMI-8226 leukemia = test system: RPMI-8226 leukemia
DU-145 prostate = test system: DU-145 prostate
M14 melanoma = test system: M14 melanoma
A549 NSCLC = test system: A549 NSCLC
U251 CNS = test system: U251 CNS
OVCAR-8 ovarian = test system: OVCAR-8 ovarian
HT29 colon = test system: HT29 colon
BT-549 breast = test system: BT-549 breast
HCC-2998 colon = test system: HCC-2998 colon
SK-OV-3 ovarian = test system: SK-OV-3 ovarian
COLO 205 colon = test system: COLO 205 colon
LOX IMVI melanoma = test system: LOX IMVI melanoma
SK-MEL-5 melanoma = test system: SK-MEL-5 melanoma
SNB-19 CNS = test system: SNB-19 CNS
RXF 393 renal = test system: RXF 393 renal
UACC-257 melanoma = test system: UACC-257 melanoma
CCRF-CEM leukemia = test system: CCRF-CEM leukemia
IGROV1 ovarian = test system: IGROV1 ovarian
HCT-15 colon = test system: HCT-15 colon
HCT-116 colon = test system: HCT-116 colon
A498 renal = test system: A498 renal
MCF7 breast = test system: MCF7 breast
CAKI-1 renal = test system: CAKI-1 renal
OVCAR-5 ovarian = test system: OVCAR-5 ovarian
NCI-H522 lung = test system: NCI-H522 lung
NCI-H460 lung = test system: NCI-H460 lung
HOP-62 NSCLC = test system: HOP-62 NSCLC
NCI-H226 lung = test system: NCI-H226 lung
ACHN renal = test system: ACHN renal
SF-295 CNS = test system: SF-295 CNS
HL-60(TB) leukemia = test system: HL-60(TB) leukemia
UO-31 renal = test system: UO-31 renal
SF-268 CNS = test system: SF-268 CNS
T-47D breast = test system: T-47D breast
SNB-75 CNS = test system: SNB-75 CNS
MDA-MB-435 = test system: MDA-MB-435
MDA-MB-468 breast = test system: MDA-MB-468 breast
SN12C renal = test system: SN12C renal
SF-539 CNS = test system: SF-539 CNS
MALME-3M melanoma = test system: MALME-3M melanoma
PC-3 prostate = test system: PC-3 prostate
TK-10 renal = test system: TK-10 renal
KM12 colon = test system: KM12 colon
HS 578T breast = test system: HS 578T breast
UACC-62 melanoma = test system: UACC-62 melanoma
MDA-MB-231 breast = test system: MDA-MB-231 breast
SK-MEL-28 melanoma = test system: SK-MEL-28 melanoma
786-0 renal = test system: 786-0 renal
SK-MEL-2 melanoma = test system: SK-MEL-2 melanoma
SW-620 colon = test system: SW-620 colon
HOP-92 NSCLC = test system: HOP-92 NSCLC
K-562 leukemia = test system: K-562 leukemia
OVCAR-3 ovarian = test system: OVCAR-3 ovarian
NCI-H23 lung = test system: NCI-H23 lung
OVCAR-4 ovarian = test system: OVCAR-4 ovarian

Structure (SMILES): O=C(c1ccc(Cl)cc1)C1[C@H](c2ccc(Br)cc2)[C@@H](c2ccccc2)NC12C(=O)Nc1ccc(Br)cc12 (stereo partly specified)
- GI50 (EKVX NSCLC): 1.94 µM
- TGI (EKVX NSCLC): 8.07 µM
- GI50 (MOLT-4 leukemia): 1.39 µM
- TGI (MOLT-4 leukemia): 5.05 µM
- GI50 (SR leukemia): 1.03 µM
- TGI (SR leukemia): 2.99 µM
- GI50 (RPMI-8226 leukemia): 1.45 µM
- TGI (RPMI-8226 leukemia): 4.86 µM
- GI50 (DU-145 prostate): 2.81 µM
- TGI (DU-145 prostate): 9.37 µM
- GI50 (M14 melanoma): 1.89 µM
- TGI (M14 melanoma): 7.61 µM
- GI50 (A549 NSCLC): 1.6 µM
- TGI (A549 NSCLC): 6.03 µM
- GI50 (U251 CNS): 1.53 µM
- TGI (U251 CNS): 6.07 µM
- GI50 (OVCAR-8 ovarian): 1.93 µM
- TGI (OVCAR-8 ovarian): 6.97 µM
- GI50 (HT29 colon): 1.19 µM
- TGI (HT29 colon): 3.09 µM
- GI50 (BT-549 breast): 2.47 µM
- TGI (BT-549 breast): 8.33 µM
- GI50 (HCC-2998 colon): 1.62 µM
- TGI (HCC-2998 colon): 4.99 µM
- GI50 (SK-OV-3 ovarian): 5.49 µM
- TGI (SK-OV-3 ovarian): 13.1 µM
- GI50 (COLO 205 colon): 0.946 µM
- TGI (COLO 205 colon): 2.08 µM
- GI50 (LOX IMVI melanoma): 0.927 µM
- TGI (LOX IMVI melanoma): 1.99 µM
- GI50 (SK-MEL-5 melanoma): 6.2 µM
- TGI (SK-MEL-5 melanoma): 12.6 µM
- GI50 (SNB-19 CNS): 3.95 µM
- TGI (SNB-19 CNS): 10.9 µM
- GI50 (RXF 393 renal): 1.18 µM
- TGI (RXF 393 renal): 3.25 µM
- GI50 (UACC-257 melanoma): 3.29 µM
- TGI (UACC-257 melanoma): 9.91 µM
- GI50 (CCRF-CEM leukemia): 1.49 µM
- TGI (CCRF-CEM leukemia): 4.98 µM
- GI50 (IGROV1 ovarian): 2.46 µM
- TGI (IGROV1 ovarian): 8.43 µM
- GI50 (HCT-15 colon): 1.6 µM
- TGI (HCT-15 colon): 6.07 µM
- GI50 (HCT-116 colon): 1.09 µM
- TGI (HCT-116 colon): 2.35 µM
- GI50 (A498 renal): 5.34 µM
- TGI (A498 renal): 11.6 µM
- GI50 (MCF7 breast): 1.48 µM
- TGI (MCF7 breast): 5.24 µM
- GI50 (CAKI-1 renal): 1.71 µM
- TGI (CAKI-1 renal): 6.79 µM
- GI50 (OVCAR-5 ovarian): 3.55 µM
- TGI (OVCAR-5 ovarian): 9.88 µM
- GI50 (NCI-H522 lung): 1.42 µM
- TGI (NCI-H522 lung): 6.69 µM
- GI50 (NCI-H460 lung): 1.07 µM
- TGI (NCI-H460 lung): 2.54 µM
- GI50 (HOP-62 NSCLC): 5.17 µM
- TGI (HOP-62 NSCLC): 11.5 µM
- GI50 (NCI-H226 lung): 1.81 µM
- TGI (NCI-H226 lung): 7.96 µM
- GI50 (ACHN renal): 1.52 µM
- TGI (ACHN renal): 5.07 µM
- GI50 (SF-295 CNS): 2.13 µM
- TGI (SF-295 CNS): 8.48 µM
- GI50 (HL-60(TB) leukemia): 1.45 µM
- TGI (HL-60(TB) leukemia): 6.79 µM
- GI50 (UO-31 renal): 1.53 µM
- TGI (UO-31 renal): 6.36 µM
- GI50 (SF-268 CNS): 1.88 µM
- TGI (SF-268 CNS): 9.16 µM
- GI50 (T-47D breast): 1.74 µM
- TGI (T-47D breast): 7.41 µM
- GI50 (SNB-75 CNS): 1.55 µM
- TGI (SNB-75 CNS): 8.89 µM
- GI50 (MDA-MB-435): 2.79 µM
- TGI (MDA-MB-435): 9.4 µM
- GI50 (MDA-MB-468 breast): 1.55 µM
- TGI (MDA-MB-468 breast): 7.73 µM
- GI50 (SN12C renal): 1.04 µM
- TGI (SN12C renal): 2.43 µM
- GI50 (SF-539 CNS): 4.67 µM
- TGI (SF-539 CNS): 10.8 µM
- GI50 (MALME-3M melanoma): 4.86 µM
- TGI (MALME-3M melanoma): 10.7 µM
- GI50 (PC-3 prostate): 1.65 µM
- TGI (PC-3 prostate): 6.18 µM
- GI50 (TK-10 renal): 3.07 µM
- TGI (TK-10 renal): 10 µM
- GI50 (KM12 colon): 1.82 µM
- TGI (KM12 colon): 7.45 µM
- GI50 (HS 578T breast): 4.15 µM
- TGI (HS 578T breast): 18.2 µM
- GI50 (UACC-62 melanoma): 2.94 µM
- TGI (UACC-62 melanoma): 9.44 µM
- GI50 (MDA-MB-231 breast): 1.4 µM
- TGI (MDA-MB-231 breast): 4.37 µM
- GI50 (SK-MEL-28 melanoma): 4.78 µM
- TGI (SK-MEL-28 melanoma): 10.7 µM
- GI50 (786-0 renal): 1.34 µM
- TGI (786-0 renal): 4.15 µM
- GI50 (SK-MEL-2 melanoma): 5.3 µM
- TGI (SK-MEL-2 melanoma): 11.5 µM
- GI50 (SW-620 colon): 2.24 µM
- TGI (SW-620 colon): 8.37 µM
- GI50 (HOP-92 NSCLC): 1.38 µM
- TGI (HOP-92 NSCLC): 4.1 µM
- GI50 (K-562 leukemia): 1.65 µM
- TGI (K-562 leukemia): 6.45 µM
- GI50 (OVCAR-3 ovarian): 2.42 µM
- TGI (OVCAR-3 ovarian): 8.6 µM
- GI50 (NCI-H23 lung): 1.72 µM
- TGI (NCI-H23 lung): 6.78 µM
- GI50 (OVCAR-4 ovarian): 2.23 µM
- TGI (OVCAR-4 ovarian): 9.06 µM
